Data reported in patent US10961238B2, “Modulators of hedgehog (Hh) signaling pathway” (E-THERAPEUTICS PLC, priority 2016, dated 2021).
pIC50: −log10 of the molar value.

Columns and labels:
[1] = tested on: SMO L416F mutant cell line; assay: C3H10T1/2 cell differentiation assay in SMO L416F mutant cell line versus wild type; assay type: cell-based, mouse; settings: SMO L416F mutant cell line compared to the wild type, C3H10T1/2 cell differentiation assay
Description: FIG. 1 is a graph of the percent inhibition of C3H10T1/2 cell differentiation of vismodegib compared to compound of the invention (compound number 174), in wild type versus SMO L416F mutant cell line.
Loss of Potency in C3H10T1/2 Cell Differentiation Assay Associated with Presence of SMO L416F Mutation.
Table 3 below details the number of fold reduction in potency of a range of compounds of the invention when applied to the SMO L416F mutant cell line compared to the wild type. SMO mutation has been described in the literature (Pricl, Sabrina, et al.) as a key mutation causative of vismodegib resistance in the clinic by interfering with drug binding.

C3H10T1/2 cells = assay: C3H assay: differentiation of C3H10T1/2 cells by mSHH, measurement of alkaline phosphatase; assay type: cell-based, mouse; settings: Mus musculus, C3H 10T1/2; C3H10T1/2 cells stimulated with mSHH for 72 hours; alkaline phosphatase activity; read-out: IC50 Ranges
SMO = target: T1, SMO (Homo sapiens, UniProt Q99835); assay: Smoothened (SMO) binding fluorescence polarisation assay (BODIPY-cyclopamine competition); settings: SMO binding FP assay versus C3H10T1/2 cellular assay
T1 construct: expressed in transfected cells; host or cells: HEK293
T1 sequence (Q99835 28-787): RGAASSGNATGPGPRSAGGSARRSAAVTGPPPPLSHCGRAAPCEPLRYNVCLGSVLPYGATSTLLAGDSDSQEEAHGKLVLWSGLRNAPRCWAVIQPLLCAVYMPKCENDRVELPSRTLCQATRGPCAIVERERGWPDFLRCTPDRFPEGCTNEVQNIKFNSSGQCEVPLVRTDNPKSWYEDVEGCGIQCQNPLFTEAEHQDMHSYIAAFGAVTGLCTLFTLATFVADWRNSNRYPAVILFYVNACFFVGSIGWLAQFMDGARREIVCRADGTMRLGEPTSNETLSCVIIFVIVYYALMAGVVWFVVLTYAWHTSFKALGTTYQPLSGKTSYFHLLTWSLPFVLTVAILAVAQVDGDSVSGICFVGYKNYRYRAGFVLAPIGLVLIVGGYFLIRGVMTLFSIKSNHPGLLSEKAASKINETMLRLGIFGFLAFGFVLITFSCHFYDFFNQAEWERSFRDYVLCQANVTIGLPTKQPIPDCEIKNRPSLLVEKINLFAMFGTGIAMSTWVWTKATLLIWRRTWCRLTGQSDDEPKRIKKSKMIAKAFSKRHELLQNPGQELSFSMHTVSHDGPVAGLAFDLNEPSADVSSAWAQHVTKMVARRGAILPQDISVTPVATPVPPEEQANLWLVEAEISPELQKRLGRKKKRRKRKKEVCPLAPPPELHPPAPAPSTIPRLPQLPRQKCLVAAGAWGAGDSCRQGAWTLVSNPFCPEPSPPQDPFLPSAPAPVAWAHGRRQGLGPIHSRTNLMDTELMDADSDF
Experimental: Standard Protocol for Smoothened (SMO) Binding Fluorescence Polarisation Assay.
The assay measures the ability of the test compounds to compete with a fluorescently-labelled version of the known ligand, cyclopamine, for binding to SMO. The fluorescent tag used is BODIPY (boron dipyrromethene).
An aliquot of a membrane preparation from a SMO-over-expressing HEK293 cell line is diluted to protein concentration of 0.117 mg/ml in assay buffer (25 mM HEPES, 2 mM EDTA, 0.05% γ-globulin, 0.01% pluronic acid pH7.4, plus protease Inhibitor cocktail). 8.5 μl of the membrane suspension is added to each well of a black, low volume 384 well microtitre plate.
Test compounds are added in a seven point dilution range to the wells containing the membrane preparation. The final DMSO solvent concentration in the wells is maintained at 0.3%. 6.5 μl of a 6.9 nM BODIPY-cyclopamine solution is added to each of the wells (final assay concentration 3 nM).
The plate is sealed and stored in the dark at room temperature for 24 hours prior to measurement of the fluorescence polarisation signal on a Perkin Elmer Envision multi-label reader.
Table 4 below details the ratio of SMO binding compared to the potency in the C3H10T1/2 cellular assay. The small ratio between SMO binding and potency for vismodegib is considered to be reflective of the fact vismodegib acts mainly through inhibition of the SMO protein. The larger ratios for the compound of the invention are considered to be reflective of alternate actions outside of direct SMO inhibition.

Structure (SMILES)	Fold reduction in potency in SMO L416F mutant cell line [1]	pIC50 (C3H10T1/2 cells)	Ratio of potency in SMO binding assay to potency in C3H10T1/2 cellular assay (SMO)
CC(C)C(CO)NC(=O)N1CC(S(=O)(=O)N2CCC(c3c[nH]c4ncccc34)CC2)C1 (racemic) [Compound 26, N-[1-(Hydroxymethyl)-2-methyl-propyl]-3-[[4-(1H-pyrrolo[2,3-b]pyridin-3-yl)-1-piperidyl]sulfonyl]azetidine-1-carboxamide]	67	7.00 to 8.00	–
O=C(OC1CCCCC1)N1CC(S(=O)(=O)N2CCC(c3c[nH]c4ncccc34)CC2)C1 [Compound 75, cyclohexyl 3-[4-(1H-pyrrolo[2,3-b]pyridin-3-yl)piperidin-1-yl]sulfonylaze-tidine-1-carboxylate]	60	7.00 to 8.00	–
O=C(NCCc1cccs1)N1CC(S(=O)(=O)N2CCC(c3c[nH]c4ncccc34)CC2)C1 [Compound 84, 3-[4-(1H-pyrrolo[2,3-b]pyridin-3-yl)piperidin-1-yl]sulfonyl-N-(2-thiophen-2-ylethyl)azetidine-1-carboxamide]	50	7.00 to 8.00	–
O=C(N1CCOCC1)N1CC(S(=O)(=O)N2CCC(c3c[nH]c4ncccc34)CC2)C1 [Compound 88, morpholin-4-yl-[3-[4-(1H-pyrrolo[2,3-b]pyridin-3-yl)piperidin-1-yl]sulfonylaze-tidin-1-yl]methanone]	27	6.00 to 7.00	–
Cc1noc(C)c1NC(=O)N1CC(S(=O)(=O)N2CCC(c3c[nH]c4ncccc34)CC2)C1 [Compound 120, N-(3,5-dimethyl-1,2-oxazol-4-yl)-3-[4-(1H-pyrrolo[2,3-b]pyridin-3-yl)piperidin-1-yl]sulfonylaze-tidine-1-carboxamide]	38	7.00 to 8.00	–
Cc1noc(C)c1OC(=O)N1CC(S(=O)(=O)N2CCC(c3c[nH]c4ncccc34)CC2)C1 [Compound 160, (3,5-dimethyl-1,2-oxazol-4-yl) 3-[4-(1H-pyrrolo[2,3-b]pyridin-3-yl)piperidin-1-yl]sulfonylaze-tidine-1-carboxylate]	29	> 8.00	–
Cc1noc(C)c1NC(=O)N1CC(S(=O)(=O)N2CCC(c3nc4ccccc4s3)CC2)C1 [Compound 294, 3-[4-(1,3-benzothiazol-2-yl)piperidin-1-yl]sulfonyl-N-(3,5-dimethyl-1,2-oxazol-4-yl)azetidine-1-carboxamide]	–	6.00 to 7.00	5.0
O=C([C@H]1C[C@@H](S(=O)(=O)N2CCC(c3c[nH]c4ncccc34)CC2)C1)N1CCOCC1 [Compound 296, cis-morpholin-4-yl-[3-[4-(1H-pyrrolo[2,3-b]pyridin-3-yl)piperidin-1-yl]sulfonylcyclobutyl] methanone]	–	6.00 to 7.00	3.8
O=C(NC1(C(F)(F)F)CC1)[C@H]1C[C@H](S(=O)(=O)N2CCC(c3c[nH]c4ncccc34)CC2)C1 [Compound 298, trans-3-[4-(1H-pyrrolo[2,3-b]pyridin-3-yl)piperidin-1-yl]sulfonyl-N-[1-(trifluoromethyl)cyclopropyl] cyclobutane-1-carboxamide]	–	6.00 to 7.00	4.9
O=C([C@H]1C[C@H](S(=O)(=O)N2CCC(c3c[nH]c4ncccc34)CC2)C1)N1CCOCC1 [Compound 308, trans-morpholin-4-yl-[3-[4-(1H-pyrrolo [2,3-b]pyridin-3-yl)piperidin-1-yl]sulfonyl-cyclobutyl] methanone]	–	6.00 to 7.00	4.8
O=S(=O)(C1CN(CC2(C(F)(F)F)CC2)C1)N1CCC(c2c[nH]c3ncccc23)CC1 [Compound 313, 3-[1-[1-[[1-(trifluoromethyl)cyclopropyl]methyl]azetidin-3-yl]sulfonylpiperidin-4-yl]-1H-pyrrolo[2,3-b]pyridine]	–	6.00 to 7.00	2.7
CC(C)(C)C(=O)CN1CC(S(=O)(=O)N2CCC(c3c[nH]c4ncccc34)CC2)C1 [Compound 314, 3,3-dimethyl-1-[3-[4-(1H-pyrrolo[2,3-b]pyridin-3-yl)piperidin-1-yl]sulfonylaze-tidin-1-yl]butan-2-one]	–	7.00 to 8.00	6.7
CC(C)(C)NC(=O)N1CC(S(=O)(=O)N2CCC(c3ccc(Cl)cc3)CC2)C1 [Compound 319, N-tert-butyl-3-[4-(4-chlorophenyl)piperidin-1-yl]sulfonylaze-tidine-1-carboxamide]	–	7.00 to 8.00	2.9
C[C@@H](NC(=O)N1CC(S(=O)(=O)N2CCC(c3coc4cccnc34)CC2)C1)C(F)(F)F [Compound 328, 3-(4-furo[3,2-b]pyridin-3-ylpiperidin-1-yl)sulfonyl-N-[(2R)-1,1,1-trifluoropropan-2-yl]azetidine-1-carboxamide]	–	7.00 to 8.00	3.2
O=C(CC(O)(C(F)(F)F)C(F)(F)F)N1CC(S(=O)(=O)N2CCC(c3c[nH]c4ncccc34)CC2)C1 [Compound 333, 4,4,4-trifluoro-3-hydroxy-1-[3-[[4-(1H-pyrrolo[2,3-b]pyridin-3-yl)-1-piperidyl]sulfonyl]azetidin-1-yl]-3-(trifluoromethyl)butan-1-one]	–	7.00 to 8.00	2.5
O=C(CC(O)(C(F)(F)F)C(F)(F)F)N1CC(S(=O)(=O)N2CCC(c3coc4cccnc34)CC2)C1 [Compound 334, 4,4,4-trifluoro-1-[3-(4-furo[3,2-b]pyridin-3-ylpiperidin-1-yl)sulfonylaze-tidin-1-yl]-3-hydroxy-3-(trifluoromethyl) butan-1-one]	–	7.00 to 8.00	2.6
Cc1ccc2c(C3CCN(S(=O)(=O)C4CN(C(=O)OC(C)(C)C)C4)CC3)c[nH]c2n1 [Compound 347, tert-butyl 3-[4-(6-methyl-1H-pyrrolo [2,3-b]pyridin-3-yl)piperidin-1-yl]sulfonylaze-tidine-1-carboxylate]	–	7.00 to 8.00	3.8
C[C@](O)(C(=O)N1CC(S(=O)(=O)N2CCC(c3c[nH]c4ncccc34)CC2)C1)C(F)(F)F [Compound 388, (2S)-3,3,3-trifluoro-2-hydroxy-2-methyl-1-[3-[4-(1H-pyrrolo[2,3-b]pyridin-3-yl)piperidin-1-yl]sulfonylaze-tidin-1-yl]propan-1-one]	–	7.00 to 8.00	5.4
C[C@](O)(C(=O)N1CC(S(=O)(=O)N2CCC(c3coc4cccnc34)CC2)C1)C(F)(F)F [Compound 395, (2S)-3,3,3-trifluoro-1-[3-(4-furo[3,2-b]pyridin-3-ylpiperidin-1-yl)sulfonyl-azetidin-1-yl]-2-hydroxy-2-methylpropan-1-one]	–	6.00 to 7.00	2.6
CC(C)(C)C(=O)CN1CC(S(=O)(=O)N2CCC(c3ccc(Cl)cc3)CC2)C1 [Compound 396, 1-[3-[4-(4-chlorophenyl)piperidin-1-yl]sulfonylaze-tidin-1-yl]-3,3-dimethylbutan-2-one]	–	6.00 to 7.00	2.5
CC(C)(O)CC(=O)N1CC(S(=O)(=O)N2CCC(c3c[nH]c4ncccc34)CC2)C1 [Compound 397, 3-hydroxy-3-methyl-1-[3-[4-(1H-pyrrolo[2,3-b]pyridin-3-yl)piperidin-1-yl]sulfonylaze-tidin-1-yl]butan-1-one]	–	6.00 to 7.00	3.6
O=C(CC(O)(C(F)(F)F)C(F)(F)F)N1CC(S(=O)(=O)N2CCC(c3ccncc3)CC2)C1 [Compound 401, 4,4,4-trifluoro-3-hydroxy-1-[3-(4-pyridin-4-ylpiperidin-1-yl)sulfonylaze-tidin-1-yl]-3-(trifluoromethyl) butan-1-one]	–	6.00 to 7.00	3.0
CC(C)(C)OC(=O)N1CC(S(=O)(=O)N2CCC(c3ccnc4ccccc34)CC2)C1 [Compound 410, tert-butyl 3-(4-quinolin-4-ylpiperidin-1-yl)sulfonylaze-tidine-1-carboxylate]	–	6.00 to 7.00	3.1
